Measurements from the Bradley open melting point set (2014).
“And” between values parts separate entries of the source, which are not always exact repeats. Identical values can stand only once.

Row | melting point | Compound
1 | 115 °C | NC(=O)c1cccc(N)c1 [m-aminobenzamide]
2 | 157 °C | O=C(O)c1cccc(Br)c1 [m-bromobenzoic_acid]
3 | -9 °C | Brc1cccc(I)c1 [m-bromoiodobenzene]
4 | 31 °C | Oc1cccc(Br)c1 [m-bromophenol]
5 | 18 °C | O=Cc1cccc(Cl)c1 [m-chlorobenzaldehyde]
6 | 159 °C | O=C(O)/C=C/c1cccc(Cl)c1 [m-chlorocinnamic_acid__(trans)]
7 | 12 °C | Cc1cccc(O)c1 [m-cresol] [listing 1 of 2 here]
8 | 11 °C | Cc1cccc(O)c1 [m-cresol] [listing 2 of 2 here]
9 | 37 °C | Ic1cccc(I)c1 [m-diiodobenzene]
10 | 175 °C | O=Cc1cccc(C(=O)O)c1 [m-formyl_benzoic_acid]
11 | 170 °C | NC(=O)c1cccc(O)c1 [m-hydroxybenzamide]
12 | 43 °C | Oc1cccc(I)c1 [m-iodophenol]
13 | 59 °C | O=Cc1cccc([N+](=O)[O-])c1 [m-nitrobenzaldehyde]
14 | 143 °C | NC(=O)c1cccc([N+](=O)[O-])c1 [m-nitrobenzamide]
15 | 142 °C | O=C(O)c1cccc([N+](=O)[O-])c1 [m-nitrobenzoic_acid]
16 | -5 °C | C=Cc1cccc([N+](=O)[O-])c1 [m-nitrostyrene]
17 | 65 °C | Nc1cccc(N)c1 [m-phenylenediamine]
18 | 12 °C | CC(=O)Oc1cccc(C)c1 [m-tolyl_acetate]
19 | 1 °C | C=Cc1cccc(O)c1 [m-vinyl_phenol]
20 | 154 °C | NNC(=O)CC(=O)NN [malonic acid dihydrazide]
21 | 45 °C | CC1CCC(C(C)C)C(O)C1 (stereo not drawn) [menthol]

Row | melting point | Compound
22 | 136 °C | CCC1(c2ccccc2)NC(=O)N(C)C1=O (stereo not drawn) [mephenytoin] [listing 1 of 2 here]
23 | 135 °C and 136 °C | CCC1(c2ccccc2)NC(=O)N(C)C1=O (stereo not drawn) [mephenytoin] [listing 2 of 2 here]
24 | 121 °C | Cc1cc(C)c(C(=O)C(=O)O)c(C)c1 [mesitylglyoxylic acid]
25 | 122 °C | OCC(O)C(O)CO (stereo not drawn) [meso-erythritol]
26 | 20 °C | CS(=O)(=O)O [methanesulfonic acid]
27 | -98 °C (6×) and -97.5 °C | CO [methanol]
28 | 146 °C (4×) and 147 °C | Cn1cc[nH]c1=S [methimazole]
29 | 90 °C | COC(=O)C1Cc2ccccc2C(=O)O1 (stereo not drawn) [methyl 1-oxo-3,4-dihydro-1H-isochromene-3-carboxylate]
30 | 99 °C | COC(=O)c1ccccc1NC(=O)c1ccccc1 [methyl 2-(benzoylamino)benzoate]
31 | 62 °C | COC(=O)c1ccccc1S(=O)(=O)Cl [methyl 2-(chlorosulfonyl)benzoate]
32 | 134 °C | COC(=O)c1cc(Br)ccc1NC(C)=O [methyl 2-acetamido-5-bromobenzoate]
33 | 103 °C | COC(=O)C1(C)C(C(C)=O)=Nc2ccccc21 (stereo not drawn) [methyl 2-acetyl-3-methyl-3H-indole-3-carboxylate]
34 | 69 °C | COC(=O)c1cc(Cl)ccc1N [methyl 2-amino-5-chlorobenzoate]
35 | 23 °C | COC(=O)c1cc(F)ccc1N [methyl 2-amino-5-fluorobenzoate]
36 | 76 °C | COC(=O)c1ccc([N+](=O)[O-])cc1Cl [methyl 2-chloro-4-nitrobenzoate]
37 | 85 °C | COC(=O)c1cc(OC)c(OC)c(OC)c1 [methyl 3,4,5-trimethoxybenzoate]
38 | 107 °C | COC(=O)c1ccc(N)c(N)c1 [methyl 3,4-diaminobenzoate]
39 | 29 °C | COC(=O)Cc1ccc(Cl)c(Cl)c1 [methyl 3,4-dichlorophenylacetate]
40 | 106 °C | COC(=O)c1cc(OC)c(O)c(OC)c1 [methyl 3,5-dimethoxy-4-hydroxybenzoate]
41 | 52 °C | COC(=O)n1nc(C)cc1C [methyl 3,5-dimethyl-1H-pyrazole-1-carboxylate]
42 | 147 °C | COC(=O)c1sc(-c2ccccc2)cc1N [methyl 3-amino-5-phenylthiophene-2-carboxylate]

Row | melting point | Compound
43 | 21 °C | COC(=O)c1cccc(Cl)c1 [methyl 3-chlorobenzoate]
44 | 38 °C | COC(=O)c1sccc1Cl [methyl 3-chlorothiophene-2-carboxylate]
45 | 71 °C | COC(=O)c1ccc(OC)c(F)c1 [methyl 3-fluoro-4-methoxybenzoate]
46 | 46 °C | COC(=O)c1sccc1O [methyl 3-hydroxythiophene-2-carboxylate]
47 | 33 °C | COC(=O)n1ccc(C)n1 [methyl 3-methyl-1H-pyrazole-1-carboxylate]
48 | 79 °C | COC(=O)c1cccc([N+](=O)[O-])c1 [methyl 3-nitrobenzoate]
49 | 127 °C | COC(=O)c1sc(Br)c(Br)c1O [methyl 4,5-dibromo-3-hydroxythiophene-2-carboxylate]
50 | 145 °C | COCC(CCC(=O)OC)N1CC=CC1 (stereo not drawn) [methyl 4-(2,5-dihydro-1H-pyrrol-1-yl)-5-methoxypentanoate]
51 | 86 °C | COC(=O)c1ccc(C(C)=O)cc1 [methyl 4-acetylbenzoate]
52 | 112 °C | COC(=O)c1ccc(N)cc1 [methyl 4-aminobenzoate] [listing 1 of 2 here]
53 | 114 °C | COC(=O)c1ccc(N)cc1 [methyl 4-aminobenzoate] [listing 2 of 2 here]
54 | 131 °C and 127 °C | COC(=O)c1ccc(O)cc1 [methyl 4-hydroxybenzoate]
55 | 50 °C | COC(=O)c1ccc(OC)cc1 [methyl 4-methoxybenzoate]
56 | 141 °C | COC(=O)c1cc2c(OC)cccc2[nH]1 [methyl 4-methoxyindole-2-carboxylate]
57 | 97 °C | COC(=O)c1cncc(Br)c1 [methyl 5-bromonicotinate]
58 | 49 °C | COC(=O)c1cc(Cl)ccc1[N+](=O)[O-] [methyl 5-chloro-2-nitrobenzoate]
59 | 105 °C | COC(=O)CCC(C)C1CCC2C3C(O)C(O)C4CCCCC4(C)C3CCC12C (stereo not drawn) [methyl 6,7-dihydroxycholan-24-oate]
60 | 155 °C | COC(=O)c1ccc(N)nc1 [methyl 6-aminonicotinate]
61 | 122 °C | COC(=O)c1ccc2cc(Br)ccc2c1 [methyl 6-bromo-2-naphthoate]
62 | 147 °C | COC(=O)N/C=C/c1ccccc1[N+](=O)[O-] [methyl [(E)-2-(2-nitrophenyl)ethenyl]carbamate]
63 | -12 °C | COC(=O)c1ccccc1 [methyl benzoate]

Row | Compound | melting point
64 | CC(=O)Oc1cccc(C(=O)O)c1 [m-acetoxy_benzoic_acid] | 133 °C
65 | Nc1cccc(Cl)c1 [m-chloroaniline] | -10 °C
66 | N#Cc1cccc([N+](=O)[O-])c1 [m-nitrobenzonitrile] | 117 °C
67 | O=[N+]([O-])c1cccc(O)c1 [m-nitrophenol] | 98 °C
68 | c1ccc(-c2cccc(-c3ccccc3)c2)cc1 [m-terphenyl] | 87 °C
69 | Cc1cccc(N)c1 [m-toluidine] | -30 °C
70 | Cc1cccc(C#N)c1 [m-tolunitrile] | -23 °C
71 | CCC(C)C(C)(COC(N)=O)COC(N)=O (stereo not drawn) [mebutamate] | 77 °C
72 | Cc1nc2ccccc2c(=O)n1-c1ccccc1Cl [mecloqualone] | 126 °C
73 | CCC(=O)C(C[C@H](C)N(C)C)(c1ccccc1)c1ccccc1 [methadone] | 102 °C
